Values after ≈ are worked out from the molar mass of the structure shown. Values joined by “and” are separate entries in the source; they are usually repeats but may differ in a detail not shown here. Equal values may be shown once.
How the values were obtained:
[1] = target: T1, Albumax medium (lipid rich bovine serum albumin) (Bos taurus, UniProt P02769); test: Binding in Albumax medium via ultracentrifugation; assay type: in vitro ADME; settings: bovine, isolated protein, pH 7.4
T1 construct: purchased Gibco, Thermo Fisher Scientific
T1 sequence (P02769 25-607): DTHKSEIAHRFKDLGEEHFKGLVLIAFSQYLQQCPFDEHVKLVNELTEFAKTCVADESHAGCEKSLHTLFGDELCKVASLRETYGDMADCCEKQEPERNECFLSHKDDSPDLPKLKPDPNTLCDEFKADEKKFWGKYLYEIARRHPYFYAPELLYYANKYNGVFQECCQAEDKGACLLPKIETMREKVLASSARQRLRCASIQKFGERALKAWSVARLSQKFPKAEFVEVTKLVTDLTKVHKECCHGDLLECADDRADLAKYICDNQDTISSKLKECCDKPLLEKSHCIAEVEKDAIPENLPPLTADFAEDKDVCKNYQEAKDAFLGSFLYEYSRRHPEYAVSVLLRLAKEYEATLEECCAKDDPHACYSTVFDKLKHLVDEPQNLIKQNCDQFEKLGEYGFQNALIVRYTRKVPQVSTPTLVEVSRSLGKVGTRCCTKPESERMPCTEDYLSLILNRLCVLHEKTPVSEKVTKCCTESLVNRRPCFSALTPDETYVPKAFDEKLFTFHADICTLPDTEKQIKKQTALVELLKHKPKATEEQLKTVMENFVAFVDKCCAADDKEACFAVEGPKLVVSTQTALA
Method: An ultracentrifugation method adapted from a previous publication was initially used to assess plasma protein binding and binding in the other media. […] Additional ultracentrifuge tubes containing spiked matrix were maintained at 37 °C, 5% or 10% CO2 or normal atmosphere conditions, with aliquots being taken within 0.5 h of the start and at the end of ultracentrifugation to serve as controls for the assessment of stability and to obtain a measure of the total concentration (Ctotal). Following ultracentrifugation, the pH was checked and an aliquot of protein-free supernate was taken from each ultracentrifuge tube for determination of the unbound concentration (Cunbound).
Total matrix and protein free samples were analysed using a matrix matching approach whereby each sample was mixed in a 1:1 ratio with the opposite blank medium (i.e. blank total matrix or blank protein free buffer). For example, plasma samples were mixed with blank pH 7.4 buffer whereas plasma supernatant samples were mixed with blank plasma. Each of the sample sets were then assayed against a common calibration curve prepared in a 1:1 mixture of total matrix and protein free pH 7.4 buffer. […] The standard deviation for fu was calculated using the propagation of errors approach as described previously. The potential for compound degradation was assessed by comparing the average value for Ctotal at the start and end of the experiment.

[2] = Solubility limited absorbable dose (SLAD) calculation with predicted human jejunal Peff; settings: for solubility: FaSSIF
Text: Predicted Peff values were obtained from a calibration plot of literature Peff values vs measured Caco-2 Papp using either buffer or plasma as the transport medium (see Results section).

[3] = Solubility in biorelevant media; settings: for solubility at 1 h / solubility: thermodynamic from solid
Method: Solubility of each active pharmaceutical ingredient was evaluated at 37 °C in pH 7.4 phosphate buffered saline (prepared as described for the partitioning experiments), fasted (FaSSIF-V2) and fed (FeSSIF-V2) state simulated intestinal fluids and fasted state simulated gastric fluid (FaSSGF) as described by Jantratid et al.. […] Samples were vortexed and placed in a 37 °C incubator on an orbital mixer (IKA® VXR basic Vibrax® orbital mixer) set at 600 rpm. Sampling times were 1 h for FaSSGF or 5–6 h for FaSSIF-V2, FeSSIF-V2, and PBS. These times were used to reflect the maximal likely residence times within the stomach and small intestine, respectively. Sampling was carried out by centrifuging each sample at 10,000 rpm for 3 min, transferring 300 µL aliquots into fresh Eppendorf tubes and centrifuging these tubes again at 10,000 rpm for 3 min. Triplicate aliquots of the supernatant were then removed and diluted 1:2 in 50% aqueous methanol and then again in 50% aqueous acetonitrile to be within the analytical concentration range. Samples were analysed by LC–MS along with calibration standards (Additional file 1: Table S2).

[4] = target: T2, CYP1A2 (Homo sapiens, UniProt P05177); test: Cytochrome P450 inhibition in human liver microsomes
T2 sequence (P05177 1-516): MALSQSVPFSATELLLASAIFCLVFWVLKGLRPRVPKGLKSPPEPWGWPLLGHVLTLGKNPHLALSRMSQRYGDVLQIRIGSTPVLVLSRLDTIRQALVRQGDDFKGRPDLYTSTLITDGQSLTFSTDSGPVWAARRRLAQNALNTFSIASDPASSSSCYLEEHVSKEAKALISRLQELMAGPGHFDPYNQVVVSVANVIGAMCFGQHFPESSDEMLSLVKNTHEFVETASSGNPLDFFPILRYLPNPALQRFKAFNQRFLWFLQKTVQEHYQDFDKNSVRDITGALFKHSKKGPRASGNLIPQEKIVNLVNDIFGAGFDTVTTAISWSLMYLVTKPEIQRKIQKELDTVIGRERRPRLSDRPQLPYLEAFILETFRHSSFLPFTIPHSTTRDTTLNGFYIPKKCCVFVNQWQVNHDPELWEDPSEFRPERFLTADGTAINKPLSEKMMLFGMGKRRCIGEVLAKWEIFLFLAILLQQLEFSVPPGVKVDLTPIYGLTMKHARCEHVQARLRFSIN
Procedure, shortened: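 Human liver microsomes were incubated with an isoform-specific probe substrate, and formation of the CYP-mediated metabolite was measured by LC–MS after quenching in ice-cold acetonitrile with diazepam as internal standard. Inhibition was expressed as percent reduction in metabolite formation versus an uninhibited control.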

[5] = based on ref 80 and control compounds
[6] = from Caco-2 Papp via calibration plot
[7] = FaSSGF, 37 °C, fassgf or other biorelevant
[8] = FaSSGF, FaSSIF-V2, FeSSIF-V2 and PBS pH 7.4, 37 °C, pH 7.4, aqueous buffer
[9] = phosphate buffered saline pH 7.4, 37 °C, pH 7.4, aqueous buffer

C[C@H]1c2cccc(O)c2C(=O)C2=C(O)[C@]3(O)C(=O)C(C(N)=O)=C(O)[C@@H](N(C)C)[C@@H]3[C@@H](O)[C@@H]21 [Doxycyclin]
fraction unbound at […], 500 ng/mL [1]: 0.41 ± 0.023
solubility [2]: > 2000 µg/mL
An (absorption number) ([2]; Peff × tres/R, minimum 1): 1.0
SLAD ([2]; Ssi × V (500 mL) × Mp): > 1000 mg
Permeability classification [2, 5]: Intermediate (50–84% absorption (intermediate))
Predicted human Peff [2, 6]: 0.70 10^−4 cm/s
solubility at 1 h [3, 7]: > 2000 µg/mL and > 4500 µM
solubility [3, 8]: > 2000 µg/mL
solubility ([3]; FaSSIF-V2, 37 °C, fassif): > 2000 µg/mL and > 4500 µM
solubility ([3]; FeSSIF-V2, 37 °C, fessif): > 2000 µg/mL and > 4500 µM
solubility [3, 9]: > 2000 µg/mL and > 4500 µM

CCCCN(CCCC)CC(O)c1cc(Cl)cc2c1-c1ccc(Cl)cc1/C2=C/c1ccc(Cl)cc1 (centres unmarked) [Lumefantrine]
IC50 [4]: > 20 µM
CYP1A2 % inhibition at max conc ([4]; microsomes): nmi
solubility at 1 h [3, 7]: 12.6 µg/mL and 23.8 µM
solubility ([3]; FaSSIF-V2, 37 °C, fassif): 0.063 µg/mL and 0.119 µM
solubility ([3]; FeSSIF-V2, 37 °C, fessif): 14.4 µg/mL and 27.2 µM
solubility [3, 9]: < 0.05 µg/mL and < 0.1 µM

Clc1ccc2c(N3CCN(CCCN4CCN(c5ccnc6cc(Cl)ccc56)CC4)CC3)ccnc2c1 [Piperaquine]
fraction unbound at […], 500 ng/mL [1]: 0.019 ± 0.004
IC50 [4]: > 20 µM
CYP1A2 % inhibition at max conc ([4]; microsomes): nmi
solubility [2]: 103 µg/mL (≈ 0.192 mM)
An (absorption number) ([2]; Peff × tres/R, minimum 1): 13
SLAD ([2]; Ssi × V (500 mL) × Mp): 685 mg
Permeability classification [2, 5]: High (> 85% absorption (high))
Predicted human Peff [2, 6]: 11 10^−4 cm/s
solubility at 1 h [3, 7]: > 2000 µg/mL and > 3700 µM
solubility ([3]; FaSSIF-V2, 37 °C, fassif): 103 µg/mL and 192 µM
solubility ([3]; FeSSIF-V2, 37 °C, fessif): 60.7 µg/mL and 113 µM
solubility [3, 9]: < 0.5 µg/mL and < 0.9 µM

COc1cc(NC(C)CCCN)c2ncccc2c1 (centres unmarked) [Primaquine]
fraction unbound at […], 500 ng/mL [1]: 0.96 ± 0.056
Permeability classification [2]: High (key: High: > 85% absorption (high); Intermediate: 50–84% absorption (intermediate); Low: < 50% absorption (low))
solubility [2]: > 2000 µg/mL
An (absorption number) ([2]; human): 3.6
Predicted human Peff ([2]; human): 3.0 10^−4 cm/s
SLAD ([2]; human): > 3560 mg
FaSSGF solubility [3]: > 2000 µg/mL
FaSSIF solubility [3]: > 2000 µg/mL
FeSSIF solubility [3]: > 2000 µg/mL
solubility ([3]; 37 °C, fassgf or other biorelevant): > 2000 µg/mL and > 7700 µM
solubility ([3]; 37 °C, fassif): > 2000 µg/mL and > 7700 µM
solubility ([3]; 37 °C, fessif): > 2000 µg/mL and > 7700 µM
solubility ([3]; 37 °C, pH 7.4, aqueous buffer): > 7.7 mM
Solubility PBS7.4 (5–6 h) ([3]; pH 7.4): > 2000/> 7700 µg/mL

[H]/N=C(\N/C(=N/[H])Nc1ccc(Cl)cc1)NC(C)C [Proguanil]
fraction unbound at […], 500 ng/mL [1]: 0.8 ± 0.021
IC50 [4]: > 20 µM
CYP1A2 % inhibition at max conc ([4]; microsomes): nmi
solubility [2]: > 2000 µg/mL
An (absorption number) ([2]; Peff × tres/R, minimum 1): 1.0
SLAD ([2]; Ssi × V (500 mL) × Mp): > 1000 mg
Permeability classification [2, 5]: Intermediate (50–84% absorption (intermediate))
Predicted human Peff [2, 6]: 0.71 10^−4 cm/s
solubility at 1 h [3, 7]: > 2000 µg/mL and > 7880 µM
solubility [3, 8]: > 2000 µg/mL
solubility ([3]; FaSSIF-V2, 37 °C, fassif): > 2000 µg/mL and > 7880 µM
solubility ([3]; FeSSIF-V2, 37 °C, fessif): > 2000 µg/mL and > 7880 µM
solubility [3, 9]: > 2000 µg/mL and > 7880 µM

COc1ccc2nc3cc(Cl)ccc3c(Nc3cc(CN4CCCC4)c(O)c(CN4CCCC4)c3)c2n1 [Pyronaridine]
fraction unbound at […], 500 ng/mL [1]: 0.69 ± 0.023
IC50 [4]: > 20 µM
inhibition at 20 µM ([4]; human, microsomes, pH 7.4): 30%
solubility [2]: > 2000 µg/mL
An (absorption number) ([2]; Peff × tres/R, minimum 1): 1.6
SLAD ([2]; Ssi × V (500 mL) × Mp): > 1610 mg
Permeability classification [2, 5]: High (> 85% absorption (high))
Predicted human Peff [2, 6]: 1.4 10^−4 cm/s
solubility at 1 h [3, 7]: > 2000 µg/mL and > 3800 µM
solubility ([3]; FaSSIF-V2, 37 °C, fassif): > 2000 µg/mL and > 3860 µM
solubility ([3]; FeSSIF-V2, 37 °C, fessif): > 2000 µg/mL and > 3800 µM
solubility [3, 9]: 357 µg/mL and 689 µM
